# Results from US8969310B2, “Potentiation of anticancer agents” (Angiochem Inc., priority 2005, dated 2015).
# pIC50: −log10 of the molar value. Like-named read-outs stand apart in the source and are kept apart here.
# Key:
# [1] = molecular target: P-gp (human MDR1) (Homo sapiens, UniProt P08183); assay: Accumulation in MDCK-MDR1 cells with or without cyclosporin A (P-gp substrate test)
# Experimental: In order to determine whether the conjugates of the present invention were P-gp substrates or not, MDCK cells were stably transfected with human MDR1 (MDCK-MDR1) and were subsequently incubated with unconjugated-anticancer drug or with the conjugates of the present invention. […] After the incubation, cells were washed and accumulation of radioactivity inside the cells or intracellular fluorescence was quantified. The increased in the accumulation of these drugs is expressed in term of x-fold compared to their respective control measured in the absence of CsA. Thus, the control value for each drug was set to 1-fold.
# [2] = test system: NCI-H460 subcutaneous tumor; assay: Subcutaneous NCI-H460 tumor growth; format: in vivo, mice; settings: i.v.
# Experimental: Briefly, mice received a subcutaneous injection of 2.5×10^6 human U87 glioma cells or NCI-H460 cells. […] Treatments were then administered twice a week until animals were sacrificed. Mice were monitored every day for clinical symptoms and weight loss. Tumor volume was estimated with a kaliper and the following equation (tumor volume=π/2×(length (mm)×width^2 (mm)).
# In the first subcutaneous tumor growth study, NCI-H460 cells were implanted in mice right flank (FIG. 22A).
# [3] = test system: U-87 glioblastoma cells; assay: Cell proliferation assay ([3H]-thymidine incorporation), U-87; format: cell-based, human
# Experimental: (§1) For the in vitro cell proliferation assay, between 2.5 and 5×10^4 of U87 or A549 cells were seeded in a 24 well tissue culture microplate in a final volume of 1 ml of medium with 10% serum and incubated for 24 hours at 37° C. and 5% CO2. The medium was then replaced with serum-free medium and incubated overnight. The next morning the drug was freshly dissolved in dimethyl sulfoxide (DMSO) and the medium was replaced with complete medium containing the drug at different concentrations in triplicates. The final concentration of DMSO was 0.1%. The control used is a microplate well with cells and without drug. The cells were incubated for 48 to 72 hrs at 37° C. and 5% CO2. After the incubation, the medium was changed and replaced with 1 ml of complete medium containing [^3H]-thymidine (1 μCi/assay). The plate was incubated at 37° C. and 5% CO2 for 4 hrs. The medium was removed and the cells washed with PBS heated at 37° C. The cells were fixed with a mix of ethanol:acetic acid (3;1), then washed with water and precipitated 3 times with 10% of ice-cold TCA (trichloroacetic acid). Finally 500 μl of PCA (perchloric acid) were added to the wells and the microplates were heated for 30 min at 65° C. and 30 min at 75° C. The contents of each well was then transferred in a scintillation vial with 10 ml of scintillation cocktail and the activity was measured in CPM (count per minute) on a liquid scintillation counter Tri-Carb from Packard.
# The anti-proliferatice activity of the conjugate against cancer cells in vitro was further assessed.
# [4] = Tissue distribution and pharmacokinetics after i.v. bolus (AUC0-4); format: in vivo, mice; settings: equivalent to 5 mg/kg of Taxol
# Experimental: The unconjugated anticancer drug and the conjugates were injected intra-veinously (i.v.) in mice as a bolus. Tissues were collected at different times (0.25, 0.5, 1 and 4 hrs) and homogenized. […] Radioactivity associated with the tissues was therefore quantified. The area under the curve (AUC0-4) was estimated using the Prism software and was plotted for the different tissues (FIG. 10).
# [5] = test system: MDA-MB-468 breast cancer cell line; assay: In vitro cytotoxicity, MDA-MB-468; format: cell-based
# [6] = test system: NCI-H460 lung carcinoma cells; assay: Cell proliferation assay ([3H]-thymidine incorporation), NCI-H460; format: cell-based
# [7] = test system: RBE4 endothelial cells from rat brain; assay: Cell proliferation assay, RBE4; format: cell-based; settings: read-out: IC50, effect on cell proliferation
# [8] = test system: MDA-MB-231 breast cancer cell line; assay: In vitro cytotoxicity, MDA-MB-231; format: cell-based
# [9] = comparator products; data based on rat GLP toxicity programs; cited from earlier work
# [10] = test system: A549 lung carcinoma cells; assay: Cell proliferation assay ([3H]-thymidine incorporation), A549; format: cell-based; settings: Homo sapiens, read-out: IC50, effect on cell proliferation
# Experimental: as §1, with “Finally 500 μl of PCA (perchloric acid) were added to the wells and the microplates were heated for 30 min at 65° C. and 30 min at 75° C.” left out, “Packard. […]” for “Packard.”
# [11] = Preliminary comparative toxicity in beagle dogs
# [12] = test system: HCC1954 breast cancer cell line; assay: In vitro cytotoxicity, HCC1954; format: cell-based
# [13] = test system: NCI-H460 cell-cycle; assay: NCI-H460 cell cycle measured by FACS; format: cell-based; settings: NCI-H460, 24 hrs; Taxol 100 nM, TxlAn2 conjugate 30 nM
# [14] = test system: BT-474 breast cancer cell line; assay: In vitro cytotoxicity, BT-474; format: cell-based
# [15] = test system: SK-HEP-1 hepatocarcinoma cells; assay: In vitro cytotoxicity, SK-HEP-1; format: cell-based, human
# [16] = test system: Calu-3 lung carcinoma cells; assay: Cell proliferation assay, Calu-3; format: cell-based; settings: Homo sapiens, read-out: IC50, effect on cell proliferation
# [17] = test system: U-118 glioblastoma cells; assay: Cell proliferation assay ([3H]-thymidine incorporation), U-118; format: cell-based; settings: read-out: IC50, effect on cell proliferation
# [18] = molecular target: T1, LRP (Mus musculus, UniProt Q91ZX7); assay: [125I]-RAP uptake in MEF-1 (LRP+) and PEA-13 (LRP-) fibroblasts; format: cell-based
# T1 construct: endogenous in cells; host or cells: MEF-1 fibroblasts (LRP-positive), with PEA-13 fibroblasts (LRP-negative) as subtraction control
# Experimental: The LRP-dependent accumulation of [^125I]-RAP was calculated by substracted the results for the uptake obtained with PEA-13 cells from the results obtained with MEF-1;
# [19] = In situ mouse brain perfusion; settings: 5 min perfusion, [125I]-labelled, FIG. 7
# Experimental: (§2) Briefly, the right common carotid of ketamine/xylazine (140/8 mg/kg i.p.) anesthetized mice was exposed and ligated at the level of the bifurcation of the common carotid, rostral to the occipital artery. The common carotid was then catheterized rostrally with polyethylene tubing filled with heparin (25 U/ml) and mounted on a 26-gauge needle. […] Prior to the perfusion, the contralateral blood flow contribution was eliminated by severing heart ventricles. […] Mice were then decapitated to terminate perfusion and the right hemisphere was isolated on ice before being subjected to capillary depletion.
# (§3) After perfusion, the brain was further perfused for 60 sec with Ringer solution to wash the excess of radiolabeled molecules and then the right hemisphere was isolated on ice before being subjected to capillary depletion.
# [20] = mouse, in vivo
# Experimental: as §2, §3
# [21] = various aprotinin concentrations
# Sequence of P-gp (human MDR1) (P08183 whole entry): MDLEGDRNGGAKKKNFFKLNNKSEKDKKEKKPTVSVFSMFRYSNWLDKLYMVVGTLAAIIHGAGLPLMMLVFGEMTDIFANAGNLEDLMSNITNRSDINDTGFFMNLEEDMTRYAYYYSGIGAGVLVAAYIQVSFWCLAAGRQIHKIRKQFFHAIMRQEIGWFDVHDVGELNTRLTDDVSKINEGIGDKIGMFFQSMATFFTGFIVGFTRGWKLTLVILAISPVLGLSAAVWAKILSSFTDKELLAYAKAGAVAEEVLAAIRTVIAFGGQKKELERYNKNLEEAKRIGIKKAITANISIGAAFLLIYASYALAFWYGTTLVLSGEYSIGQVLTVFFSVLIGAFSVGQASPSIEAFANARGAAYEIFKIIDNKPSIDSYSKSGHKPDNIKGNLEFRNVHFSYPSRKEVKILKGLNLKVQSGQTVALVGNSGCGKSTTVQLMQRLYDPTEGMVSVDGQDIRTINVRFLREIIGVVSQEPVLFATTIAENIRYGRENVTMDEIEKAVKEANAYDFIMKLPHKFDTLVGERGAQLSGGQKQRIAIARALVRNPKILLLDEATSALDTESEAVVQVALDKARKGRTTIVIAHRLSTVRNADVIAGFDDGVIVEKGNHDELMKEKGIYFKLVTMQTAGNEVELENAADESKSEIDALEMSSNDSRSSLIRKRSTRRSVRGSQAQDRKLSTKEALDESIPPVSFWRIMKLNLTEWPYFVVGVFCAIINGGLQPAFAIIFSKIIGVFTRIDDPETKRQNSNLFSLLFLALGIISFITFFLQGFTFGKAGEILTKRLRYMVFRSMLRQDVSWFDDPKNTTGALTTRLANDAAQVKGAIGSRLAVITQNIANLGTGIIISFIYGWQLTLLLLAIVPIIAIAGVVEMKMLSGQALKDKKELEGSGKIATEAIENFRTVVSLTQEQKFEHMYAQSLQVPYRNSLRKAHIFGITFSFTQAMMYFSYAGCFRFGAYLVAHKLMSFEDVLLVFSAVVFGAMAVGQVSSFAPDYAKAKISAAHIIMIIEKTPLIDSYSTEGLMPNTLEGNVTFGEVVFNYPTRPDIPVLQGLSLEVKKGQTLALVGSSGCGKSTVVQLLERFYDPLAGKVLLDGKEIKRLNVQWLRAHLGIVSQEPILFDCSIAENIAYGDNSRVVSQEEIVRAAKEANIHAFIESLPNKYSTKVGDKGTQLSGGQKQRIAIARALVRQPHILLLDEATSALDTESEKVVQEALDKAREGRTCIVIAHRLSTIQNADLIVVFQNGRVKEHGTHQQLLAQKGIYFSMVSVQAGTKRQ
molecule,measurement,setting,value
rhodamine,"Increase in accumulation in the presence of CsA, x-fold of control without CsA","[1]; MDCK-MDR1, 1 hr 37° C., 10 μM cyclosporin A",7.5 fold
same,P-gp substrate or not,"[1]; MDCK-MDR1, with or without CsA",are P-gp substrates
CC(=O)O[C@H]1C(=O)[C@@]2(C)[C@H]([C@H](OC(=O)c3ccccc3)[C@]3(O)C[C@H](OC(=O)[C@H](O)[C@@H](NC(=O)c4ccccc4)c4ccccc4)C(C)=C1C3(C)C)[C@]1(OC(C)=O)CO[C@@H]1C[C@@H]2O [Taxol],Tumor growth Δ,[2]; Day 0 to Day 11,371 ± 58 mm^3
same,T/C,[2]; Day 11,62%
same,"Tumor volume, Day 0","[2]; baseline, equivalent of 10 mg/kg of Taxol",112 ± 12 mm^3
same,"Tumor volume, Day 11","[2]; equivalent of 10 mg/kg of Taxol, twice a week",483 ± 63 mm^3
same,pIC50,"[3]; Homo sapiens, 72 h, read-out: IC50, proliferation of glioblastoma cells (U-87)",~8.00
same,pIC50,"[3]; Homo sapiens, read-out: IC50, effect on cell proliferation",8.02
same,IC50,"[3]; Homo sapiens, U-87 MG, Table 3B, read-out: IC50 (nM) Mean",12.9 nM
same,Residual survival % Mean,[3]; U-87 MG,40.35%
same,AUC 0-4,[4]; Brain,0.07 μg/g of tissue
same,AUC 0-4,[4]; Eye,0.57 μg/g of tissue
same,AUC 0-4,[4]; Heart,2.5 μg/g of tissue
same,AUC 0-4,[4]; Kidney,8.0 μg/g of tissue
same,AUC 0-4,[4]; Liver,22 μg/g of tissue
same,AUC 0-4,[4]; Lung,1.1 μg/g of tissue
same,P-gp substrate or not,[1]; MDCK-MDR1,are P-gp substrates
same,Residual survival % Mean,[5],54.26%
same,IC50,[5]; Homo sapiens,13.5 nM
same,pIC50,"[6]; Homo sapiens, NCI-H460, read-out: IC50, effect on cell proliferation",8.03
same,IC50,"[6]; Homo sapiens, NCI-H460, Table 3B, read-out: IC50 (nM) Mean",6.61 nM
same,Residual survival % Mean,[6]; NCI-H460,24.98%
same,pIC50,[7],6.86
same,Residual survival % Mean,[8],45.62%
same,IC50,[8]; Homo sapiens,17.6 nM
same,MTD,[9],8 mg/kg
same,pIC50,[10],8.44
same,Platelets,[11]; 4-days post-treatment,200 ×109 cells/L
same,Reticulocytes,[11]; 4-days post-treatment,0.011 ×1012 cells/L
same,White Blood Cells,[11]; 4-days post-treatment,4.3 ×109 cells/L
same,Platelets,[11]; 8-days post treatment,340 ×109 cells/L
same,Reticulocytes,[11]; 8-days post treatment,0.11 ×1012 cells/L
same,White Blood Cells,[11]; 8-days post treatment,8.7 ×109 cells/L
same,Platelets,[11]; Pre-treatment,250 ×109 cells/L
same,Reticulocytes,[11]; Pre-treatment,0.031 ×1012 cells/L
same,White Blood Cells,[11]; Pre-treatment,9.7 ×109 cells/L
same,Residual survival % Mean,[12],48.82%
same,IC50,[12]; Homo sapiens,6.12 nM
same,Effect on cell cycle,[13],induce a blockade of NCI-H460 cell in G2/M phase
same,Residual survival % Mean,[14],52.24%
same,IC50,"[14]; Homo sapiens, Table 3B",62.9 nM
same,Residual survival % Mean,[15],55.18%
same,IC50,"[15]; Homo sapiens, SK-HEP1",8.84 nM
same,pIC50,[16],7.76
same,pIC50,[17],8.14
aprotinin,LRP-dependent accumulation of [125I]-RAP (MEF-1 minus PEA-13),"[18]; excess, 25 μM, FIG. 18",affect the LRP-dependent accumulation of [^125I]-RAP
same,Uptake of [125I]-RAP in LRP-negative cells (PEA-13),[18]; [21],almost unaffected
same,Uptake of [125I]-RAP in LRP-positive cells (MEF-1),[18]; [21],inhibited the transport of [^125I]-RAP in positive LRP cells in a dose-dependent manner
same,Initial brain uptake (transport rate) compared with transferrin,[19],highest initial transport rate than transferrin
CC[C@]1(O)C[C@@H]2CN(CCc3c([nH]c4ccccc34)[C@@](C(=O)OC)(c3cc4c(cc3OC)N(C)[C@H]3[C@@](O)(C(=O)OC)[C@H](OC(C)=O)[C@]5(CC)C=CCN6CC[C@]43[C@@H]65)C2)C1 [vinblastine],P-gp substrate or not,[1]; MDCK-MDR1,are P-gp substrates
C[C@@H](O)[C@H](N)C(=O)N[C@@H](Cc1ccccc1)C(=O)N[C@@H](Cc1ccccc1)C(=O)N[C@@H](Cc1ccc(O)cc1)C(=O)NCC(=O)NCC(=O)N[C@@H](CO)C(=O)N[C@@H](CCCNC(=N)N)C(=O)NCC(=O)N[C@@H](CCCCN)C(=O)N[C@@H](CCCNC(=N)N)C(=O)N[C@@H](CC(N)=O)C(=O)N[C@@H](CC(N)=O)C(=O)N[C@@H](Cc1ccccc1)C(=O)N[C@@H](CCCCN)C(=O)N[C@H](C(=O)N[C@@H](CCC(=O)O)C(=O)N[C@@H](CCC(=O)O)C(=O)N[C@@H](Cc1ccc(O)cc1)C(=O)O)[C@@H](C)O [Angiopep-2],Accumulation into brain parenchyma compared with vascular marker [14C]-inulin,[20],higher than that of the vascular marker
